Results from patent US20090131302A1, “Transient receptor potential vanilloid 1 and uses thereof” (priority 2007, published 2009).
pKi: −log10 of the molar value. Entries after “also recorded” stand apart in the source; their conditions may differ. One block for each compound: values may come before it.

Experiments:
TRPV1 [1] = target: T1, TRPV1 (Rattus norvegicus, UniProt O35433); experiment: Neonatal TRPV1 antagonist pre-treatment before P10 colonic acetic acid; sensitivity to colorectal distention at 8 weeks; format: in vivo
T1 construct: endogenous in cells; host or cells: living rats (neonatal and adult); DRG and spinal cord tissue for the expression work
Method: (§1) In the first experiment, 3 groups of 10 neonatal rats were used. While Group 1 received SB-366791, 1.3 mg/kg subcutaneously 30 minutes prior to colonic acetic acid administration. Group 2 received vehicle subcutaneously prior to colonic acetic acid administration, and Group 3 received vehicle prior to colonic saline administration. In the second experiment, 3 groups of 10 neonatal rats were used. All rats received a drug or vehicle subcutaneously 24 hours and 30 minutes prior to colonic acetic acid administration. Group 4 received SB-366791, 2.6 mg/kg, Group 5 received I-RTX, 2 mg/kg, and Group 6 received vehicle. For both experiments, at 8 weeks of age, EMG recordings and abdominal withdrawal reflex grades were simultaneously obtained in response to graded colorectal distention. To test the effect of TRPV1 inhibitors on adults, 2 groups of 10 rats were used: on post-natal day 10, Group 7 received colonic acetic acid, Group 8 received colonic saline. At 7 weeks of age, Groups 7 and 8 were split: half of each group received SB-366791, 1.3 mg/kg, and half vehicle, subcutaneously 30 minutes prior to colorectal distention. After one week of period, vehicle and drug groups were crossed-over and sensitivity to colorectal distention was measured again.
Ten days old rat pups received TRPV1 antagonist or vehicle subcutaneously 30 minutes prior to colon acetic acid infusion and were tested for sensitivity to colorectal distention at 8 weeks of age.
Thus, antagonism of the TRPV1 prior to neonatal administration of acetic acid attenuated the development of sensitivity to colorectal distention.

TRPV1 [2] = target: TRPV1 (Homo sapiens, UniProt Q8NER1); conditions: cited from earlier work
TRPV1 [3] = conditions: cited from earlier work
p38 = conditions: models of inflammation and neuropathy; cited from earlier work
TRPV1 [4] = target: T1, TRPV1; experiment: TRPV1 antagonism in adult rats neonatally treated with acetic acid or saline; graded colorectal distention; format: in vivo; conditions: 1.3 mg/kg 30 minutes prior to CRD
Method: as §1
AWR scores of drug and vehicle treated rats as adults within each neonatal treatment group (P10 acetic acid or P10 saline) were compared at each distention pressure by Wilcoxon signed rank test.

[5] = system: 50 receptors of various types; set-up: dose or concentration left out as unconfirmed; conditions: cited from earlier work
[6] = system: voltage-gated Ca++ currents or the hyperpolarization activated current in rat DRG neurons; conditions: at 1 mM; cited from earlier work
[7] = system: AMPA or NMDA mediated hippocampal synaptic transmission; conditions: cited from earlier work
TRPV1 [8] = conditions: in vivo; cited from earlier work
MEK = conditions: cited from earlier work
TRPV1 [9] = target: T1, TRPV1; experiment: Neonatal colonic capsaicin infusion; sensitivity to colorectal distention at 7 weeks; format: in vivo; conditions: 0.2 ml of 50 mg/ml into colon at P10, tested at 7 weeks, 20, 40, 60, 80 mm Hg, vs unmanipulated and vehicle
Method: To treat neonatal rats with capsaicin, ten day old rat pups received an infusion of 0.2 mls of 50 mg/ml capsaicin or 0.2 mls vehicle: 10% ethanol, 10% Tween 20, 80% saline or were left unmanipulated. Visceral sensitivity and inflammatory parameters were measured in these rats between 8 and 12 weeks of age. […] After 4 weeks, rats were tested for sensitivity to colorectal distention.
Visceral hypersensitivity was measured by grading the response of rats to colorectal distention as previously described.^11 Briefly, under mild sedation with 1% Brevital (Eli Lily & Co Indianapolis, Ind.) 25 mg/kg i.p.), a flexible balloon (5 cm) constructed from a surgical glove finger attached to a tygon tubing was inserted 8 cm into the descending colon and rectum via the anus and held in place by taping the tubing to the tail. Rats were placed in small Lucite cubicles (20×8×8 cm) (Bioengineering Department, UTMB) and were allowed to adapt for 30 minutes. […] Pressure was measured using a sphygmomanometer connected to a pressure transducer. […] Behavioral responses to colorectal distention were measured by visual observation of the abdominal withdrawal reflex by blinded observer and the assignment of an AWR score as follows: 1=Normal behavior without response 2=Contraction of abdominal muscles; 3=Lifting of abdominal wall; 4=Body arching and lifting of pelvic structures. […]

p38 and ERK = conditions: peripheral administration; cited from earlier work
[10] = in vivo; cited from earlier work
calcium channels = conditions: at high concentrations; cited from earlier work
TRPV1 [11] = target: T2, TRPV1 (Mus musculus, UniProt Q704Y3); conditions: cited from earlier work
T2 construct: host or cells: colon and jejunal afferent fibre preparations

[12] = 1.3 mg/kg s.c. 30 minutes prior to P10 acetic acid, tested at 8 weeks, 40, 60 and 80 mm Hg, vs vehicle

T1 sequence (O35433 whole entry): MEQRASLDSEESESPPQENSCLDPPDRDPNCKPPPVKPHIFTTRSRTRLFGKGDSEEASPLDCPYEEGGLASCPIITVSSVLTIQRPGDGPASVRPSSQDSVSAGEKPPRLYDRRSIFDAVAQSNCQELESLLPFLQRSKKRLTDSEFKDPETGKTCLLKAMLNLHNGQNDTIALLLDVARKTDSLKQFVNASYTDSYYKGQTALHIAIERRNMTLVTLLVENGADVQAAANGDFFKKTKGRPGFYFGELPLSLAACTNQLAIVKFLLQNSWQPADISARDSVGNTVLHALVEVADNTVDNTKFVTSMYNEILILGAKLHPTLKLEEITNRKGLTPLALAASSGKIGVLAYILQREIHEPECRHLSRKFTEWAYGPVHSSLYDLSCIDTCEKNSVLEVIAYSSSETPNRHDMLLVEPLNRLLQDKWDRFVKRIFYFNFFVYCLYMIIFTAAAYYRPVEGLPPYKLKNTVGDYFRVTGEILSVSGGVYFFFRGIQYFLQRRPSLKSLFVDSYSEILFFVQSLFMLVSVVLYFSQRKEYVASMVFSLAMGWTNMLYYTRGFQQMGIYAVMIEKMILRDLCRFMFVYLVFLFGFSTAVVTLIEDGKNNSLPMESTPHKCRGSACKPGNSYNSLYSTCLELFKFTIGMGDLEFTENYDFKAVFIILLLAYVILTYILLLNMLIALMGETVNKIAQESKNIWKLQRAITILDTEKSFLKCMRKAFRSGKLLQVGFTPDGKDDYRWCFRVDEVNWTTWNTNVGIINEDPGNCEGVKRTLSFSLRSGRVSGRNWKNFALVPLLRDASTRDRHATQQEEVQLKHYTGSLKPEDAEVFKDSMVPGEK
Chain of TRPV1 (Homo sapiens, UniProt Q8NER1) (Q8NER1 whole entry, species assumed): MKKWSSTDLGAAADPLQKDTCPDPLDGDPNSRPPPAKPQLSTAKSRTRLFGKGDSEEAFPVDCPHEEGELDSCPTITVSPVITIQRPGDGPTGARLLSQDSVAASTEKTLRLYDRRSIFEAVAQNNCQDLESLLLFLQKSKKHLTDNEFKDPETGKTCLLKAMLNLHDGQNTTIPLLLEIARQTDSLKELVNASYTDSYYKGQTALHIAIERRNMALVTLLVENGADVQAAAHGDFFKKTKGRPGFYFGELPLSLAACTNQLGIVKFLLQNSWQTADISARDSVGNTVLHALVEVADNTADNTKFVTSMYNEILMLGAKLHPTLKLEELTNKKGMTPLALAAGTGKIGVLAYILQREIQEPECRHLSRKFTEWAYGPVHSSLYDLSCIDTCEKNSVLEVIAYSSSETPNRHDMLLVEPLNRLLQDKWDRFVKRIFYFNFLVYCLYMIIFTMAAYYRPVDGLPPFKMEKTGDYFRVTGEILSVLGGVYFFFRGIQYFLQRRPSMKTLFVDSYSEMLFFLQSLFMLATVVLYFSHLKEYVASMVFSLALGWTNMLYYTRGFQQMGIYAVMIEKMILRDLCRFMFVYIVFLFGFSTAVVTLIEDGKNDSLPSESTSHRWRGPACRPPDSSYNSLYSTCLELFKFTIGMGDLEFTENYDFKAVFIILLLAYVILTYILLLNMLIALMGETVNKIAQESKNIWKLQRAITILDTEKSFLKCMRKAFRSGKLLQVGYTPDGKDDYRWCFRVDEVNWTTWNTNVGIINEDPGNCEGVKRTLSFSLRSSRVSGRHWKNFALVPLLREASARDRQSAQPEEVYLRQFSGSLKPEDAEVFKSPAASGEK
T2 sequence (Q704Y3 whole entry): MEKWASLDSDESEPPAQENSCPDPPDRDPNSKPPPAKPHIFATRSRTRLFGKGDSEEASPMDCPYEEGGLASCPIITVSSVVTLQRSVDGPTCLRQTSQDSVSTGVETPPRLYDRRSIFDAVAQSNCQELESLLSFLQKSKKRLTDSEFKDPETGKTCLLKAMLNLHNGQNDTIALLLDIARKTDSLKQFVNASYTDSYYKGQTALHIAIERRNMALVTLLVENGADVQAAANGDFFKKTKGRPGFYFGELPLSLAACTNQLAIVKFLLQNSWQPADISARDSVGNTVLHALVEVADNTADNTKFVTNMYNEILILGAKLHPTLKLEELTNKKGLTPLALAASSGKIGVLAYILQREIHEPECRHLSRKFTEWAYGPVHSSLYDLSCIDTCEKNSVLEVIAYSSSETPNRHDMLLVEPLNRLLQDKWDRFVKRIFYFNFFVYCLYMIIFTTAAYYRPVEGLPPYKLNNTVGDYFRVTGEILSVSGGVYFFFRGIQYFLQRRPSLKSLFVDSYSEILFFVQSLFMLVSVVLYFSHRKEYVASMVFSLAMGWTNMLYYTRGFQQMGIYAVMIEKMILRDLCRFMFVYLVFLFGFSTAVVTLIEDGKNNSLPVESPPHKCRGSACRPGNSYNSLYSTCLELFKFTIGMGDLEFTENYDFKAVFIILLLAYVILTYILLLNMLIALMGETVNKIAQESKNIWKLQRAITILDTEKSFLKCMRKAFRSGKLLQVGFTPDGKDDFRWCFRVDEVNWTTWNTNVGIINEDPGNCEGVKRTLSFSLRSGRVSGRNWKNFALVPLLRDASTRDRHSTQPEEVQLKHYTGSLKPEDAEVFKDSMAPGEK

Compound: C=C(C)[C@]12C[C@@H](C)[C@@]34O[C@](Cc5ccccc5)(O[C@@H]1[C@@H]3C=C(COC(=O)Cc1cc(I)c(O)c(OC)c1)C[C@]1(O)C(=O)C(C)=C[C@@H]41)O2 [I-RTX, 5′Iodoresiniferatoxin]
sensitivity to colorectal distention by AWR grade (TRPV1 [1]; 2 mg/kg s.c. 24 hours and 30 minutes prior to P10 acetic acid, 8 weeks, 10, 20 and 40 mm Hg): reduced sensitivity | sensitivity to colorectal distention by AWR grade (TRPV1 [1]; 2 mg/kg s.c. 24 hours and 30 minutes prior to P10 acetic acid, 8 weeks, 10, 20 and 40 mm Hg, listed as 1-RTX): significant decreased sensitivity | sensitivity to colorectal distention by EMG (TRPV1 [1]; 2 mg/kg s.c. 24 hours and 30 minutes prior to P10 acetic acid, 8 weeks, 20, 40, 60 and 80 mm Hg): reduced sensitivity | sensitivity to colorectal distention by EMG (TRPV1 [1]; 2 mg/kg s.c. 24 hours and 30 minutes prior to P10 acetic acid, 8 weeks, 20, 40, 60 and 80 mm Hg, listed as 1-RTX): significant decreased sensitivity | potency and selectivity compared with capsezapine (TRPV1 [2]): more potent and selective antagonists | blocking TRPV1-mediated effects in several animal models in vivo (TRPV1 [3]): effective in blocking TRPV1-mediated effects

Compound: C[S+]([O-])c1ccc(-c2nc(-c3ccncc3)c(-c3ccc(F)cc3)[nH]2)cc1 (stereo not drawn) [SB-203580]
development of behavioral hypersensitivity (p38): blocks the development of behavioral hypersensitivity

EMG activity in response to colorectal distention (TRPV1 [1]; [12]): significantly less | AWR response to colorectal distention, P10 saline treated adult rats (TRPV1 [4]; 10-80 mm Hg): no significant effect | AWR response to colorectal distention, P10 acetic acid treated adult rats (TRPV1 [4]; 10 and 80 mm Hg): No significant differences | AWR response to colorectal distention, P10 acetic acid treated adult rats (TRPV1 [4]; 20 mm Hg): trend towards significance | AWR response to colorectal distention, P10 acetic acid treated adult rats (TRPV1 [4]; 40 and 60 mm Hg, vs vehicle): reduced sensitivity to CRD | AWR response to colorectal distention, P10 acetic acid treated adult rats (TRPV1 [4]; 40 and 60 mm Hg, vs vehicle, listed as SB-366,791): significant decline
Compound: COc1cccc(NC(=O)C=Cc2ccc(Cl)cc2)c1 [SB-366791, N-(3-Methoxyphenyl)-4-chlorocinnamide]
sensitivity to colorectal distention by AWR grade (TRPV1 [1]; [12]): significant decreases in sensitivity to colorectal distention | sensitivity to colorectal distention by AWR grade (TRPV1 [1]; 2.6 mg/kg s.c. 24 hours and 30 minutes prior to P10 acetic acid, 8 weeks, 10, 20, 40 and 60 mm Hg): reduced sensitivity; also recorded: significantly decreased sensitivity | sensitivity to colorectal distention by EMG (TRPV1 [1]; 2.6 mg/kg s.c. 24 hours and 30 minutes prior to P10 acetic acid, 8 weeks, 20, 40 and 60 mm Hg): reduced sensitivity; also recorded: significantly decreased sensitivity | acid-mediated activation (TRPV1 [2]): blocks acid-mediated activation | potency and selectivity compared with capsezapine (TRPV1 [2]): more potent and selective antagonists | pKi (TRPV1 [2]; competitive antagonist of capsaicin): 7.74 | effect in in vitro binding assays against 50 receptors of various types [5]: little or no effect | effect on hyperpolarization activated current [6]: little or no effect | effect on voltage-gated Ca++ currents [6]: little or no effect | effects on AMPA or NMDA mediated hippocampal synaptic transmission [7]: no effects | capsaicin effects on thermoregulation (TRPV1 [8]): block capsaicin effects on thermoregulation

Compound: N#CC(=C(/N)Sc1ccccc1N)/C(C#N)=C(\N)Sc1ccccc1N [U0126]
epinephrine induced mechanical hypersensitivity (MEK; in vivo): reduces epinephrine induced mechanical hypersensitivity | thermal and mechanical hypersensitivity (MEK; models of inflammation and neuropathic pain): attenuates thermal and mechanical hypersensitivity

sensitivity to colorectal distention (TRPV1 [9]): increased sensitivity
Compound: COc1cc(CNC(=O)CCCC/C=C/C(C)C)ccc1O [capsaicin]
sensitivity to colorectal distention (TRPV1 [9]; listed as CAP): significantly more sensitive to colorectal distention | p38 and ERK activation in dorsal root ganglia neurons (p38 and ERK): activates p38 and ERK

Compound: Oc1cc2c(cc1O)CN(C(=S)NCCc1ccc(Cl)cc1)CCC2 [capsazepine]
pharmacokinetic properties [10]: poor pharmacokinetic properties | calcium channel block (calcium channels): blocks calcium channels at high concentrations | colon afferent fiber responses to stretch (TRPV1 [11]): inhibited | jejunal afferent responses to acid (TRPV1 [11]): inhibited
